Values quoted from earlier work as cited in US20120252835A1, “STABLE TEMSIROLIMUS COMPOSITION AND PROCESS OF PREPARING SAME” (ASTRON RESEARCH LIMITED, priority 2011, published 2012).

In the case of “Rapamycin, 42-[3-hydroxy-2-(hydroxymethyl)-2-methylpropanoate] [Temsirolimus]”, the “Solubility in alcohols acceptable for parenteral administration” value (ethanol, propylene glycol, polyethylene glycol and the likes) is listed as “soluble” and the Solubility in water (water) is listed as “practically insoluble”.
